“And” between values parts separate entries of the source, which are not always exact repeats. Identical values can stand only once.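 48-hour exposure; five concentrations; linearly interpolated endpoints. GI50: concentration for 50% inhibition of growth. TGI marks complete inhibition of growth.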
Assays:
Experiment in all cases: NCI tumour cell line growth inhibition, 48 h
A498 renal = test system: A498 renal
ACHN renal = test system: ACHN renal
K-562 leukemia = test system: K-562 leukemia
MALME-3M melanoma = test system: MALME-3M melanoma
MOLT-4 leukemia = test system: MOLT-4 leukemia
NCI-H522 lung = test system: NCI-H522 lung
OVCAR-4 ovarian = test system: OVCAR-4 ovarian
RXF 393 renal = test system: RXF 393 renal
SF-539 CNS = test system: SF-539 CNS
SK-MEL-28 melanoma = test system: SK-MEL-28 melanoma

Structure (SMILES)	TGI (A498 renal)	TGI (ACHN renal)	TGI (K-562 leukemia) [µM]	TGI (MALME-3M melanoma)	TGI (MOLT-4 leukemia) [µM]	TGI (NCI-H522 lung)	TGI (OVCAR-4 ovarian)	TGI (RXF 393 renal)	TGI (SF-539 CNS)	TGI (SK-MEL-28 melanoma)	GI50 (A498 renal) [µM]	GI50 (ACHN renal) [µM]	GI50 (K-562 leukemia) [µM]	GI50 (MALME-3M melanoma) [µM]	GI50 (MOLT-4 leukemia) [µM]	GI50 (NCI-H522 lung) [µM]	GI50 (OVCAR-4 ovarian) [µM]	GI50 (RXF 393 renal) [µM]	GI50 (SF-539 CNS) [µM]	GI50 (SK-MEL-28 melanoma) [µM]
c1cnc2nc3n(c2c1)CSC3	> 100 µM	> 100 µM	> 100	> 100 µM	> 100	> 100 µM	> 100 µM	> 100 µM	> 100 µM	> 100 µM										
CC(C)=Cc1cc(C(=O)NCCNC(=O)c2cc(C=C(C)C)nc(NC#N)n2)nc(NC#N)n1	> 100 µM	> 100 µM	> 100	> 100 µM	> 100	> 100 µM	> 100 µM	> 100 µM	> 100 µM	> 100 µM										
[Au+].c1c[n-]cn1.c1ccc([PH+](c2ccccc2)c2ccccc2)cc1	34.9 µM	17.6 µM	30.4	4.25 µM	5.15	2.93 µM	36.7 µM	2.66 µM	10.8 µM	6.87 µM	17.4	6.19	2.61	1.96	2.07	1.19	13.4	1.3	4.38	2.29
Cc1cc(Cl)ccc1Nc1nc2c(s1)C(=O)c1ccccc1C2=O	42 µM	10.3 µM	> 23.3	2.92 µM	> 25.4	4.08 µM	9.41 µM	16.8 µM	16 µM	4.14 µM										
NC(CSC1(c2ccc(Cl)cc2)c2ccccc2-c2ccccc21)C(=O)O (stereo unspecified)	35 µM	50.2 µM	> 100	38.5 µM	71.5	30.4 µM	> 100 µM	> 100 µM	48.5 µM	> 100 µM										
O=[P+](O)c1cccnc1	> 100 µM	> 100 µM	> 100	> 100 µM	> 100	> 100 µM	> 100 µM	> 100 µM	> 100 µM	> 100 µM										
COC(=O)Cc1nn2c(nc1=O)sc1ccc3ccccc3c12	> 100 µM	> 100 µM	> 100	> 100 µM	> 100	> 100 µM	> 100 µM	96 µM	> 100 µM	> 100 µM										
O=C1Nc2c(ccc(Cl)c2Cl)/C1=C\c1cc(C(F)(F)F)cc(C(F)(F)F)c1	13.6 µM	11.3 µM	5.97	8.91 µM	4.68	6.47 µM	7.66 µM	2.94 µM	13.8 µM	7.61 µM	5.59	3.18	1.55	0.795	2.09	1.54	1.81	1.21	6.95	2.1
CSCC(COC(C)=O)(CSC)c1ccncc1	> 100 µM	> 100 µM	> 100	> 100 µM	> 100	> 100 µM	> 100 µM	> 100 µM	> 100 µM	> 100 µM										
COc1ccc2c(c1)C(=O)c1c-2c(OCCN2CCCCC2)nc2ccc(OC)cc12	4.73 µM	3.26 µM	2.76	4.47 µM	1.81	2.11 µM	10.7 µM	11 µM	12.4 µM	12.8 µM	1.04	0.425	0.413	1.27	0.305	0.523	1.36	1.9	0.693	3.52
CC(=O)Nc1ccc(Cc2ccc3[nH]c(=O)cc(C)c3c2)cc1	> 100 µM	> 100 µM	> 100	> 100 µM	> 100	> 100 µM	> 100 µM	> 100 µM	> 100 µM	> 100 µM										
O=C(O)c1c[nH]c2c(ccc3[nH]cc(C(=O)O)c(=O)c32)c1=O	> 100 µM	> 100 µM	> 100	> 100 µM	> 100	> 100 µM	> 100 µM	> 100 µM	> 100 µM	> 100 µM										
CCOC(=O)CP(=S)(S)c1ccccc1 (stereo unspecified)	> 100 µM	> 100 µM	> 100	> 100 µM	> 100	> 100 µM	> 100 µM	> 100 µM	> 100 µM	> 100 µM										
O=C(c1ccccc1)c1c2n(c3c1cc(O)c1ccccc13)CCN2	35.4 µM	33.1 µM	8.2	4.19 µM	4.45	4.03 µM	2.86 µM	27.1 µM	6.04 µM	27.3 µM	18.3	13.5	2.56	1.97	2.06	1.96	1.53	11.1	2.39	12.1
N/C(=N\C(N)=N\c1nc2ccccc2s1)c1ccnc(Br)c1	41 µM	> 100 µM	> 100	> 100 µM	> 100	> 100 µM	> 100 µM	27.1 µM	95 µM	> 100 µM	5.14	5.22	3.46	6.22	4.35	3.22	7.83	2.81	4.67	8.7
COc1ccc(Nc2ncccc2C(=O)NCc2cn(Cc3cccc(Oc4ccccc4)c3)nn2)c(OC)c1	13 µM	> 100 µM	> 100	> 100 µM	> 100	6.46 µM	> 100 µM	> 74.2 µM	19.2 µM	> 100 µM	1.33	3.94	1.58	6.21	4.02	1.44	5.27	1.91	2.43	5.27
COc1ccc(/C=C/C(=O)c2ccccc2)cc1OC	38.6 µM and 32.2 µM	29.4 µM and 28.5 µM	> 100	35.1 µM and 38 µM	> 100	31.5 µM and 19.6 µM	36.6 µM and 33.3 µM	48.2 µM and 27.6 µM	25.7 µM and 36.1 µM	38.1 µM and 32 µM			3.95	18.7	17.9	4.18			16.4	17.6
Oc1[nH]c2ccccc2c1/C=c1/ccc2c(c1)N=C(c1cc(F)cc(F)c1)N=2	17 µM	21.3 µM	13.8	28.3 µM	14.6	18.6 µM	13.5 µM	25 µM	31.4 µM	20.2 µM	1.53	7.39	3.28	10.1	3.53	3.64	3.33	8.2	13.6	7.24
CCCCC1N=CNc2c1ccc1c2[nH]c2ccccc21 (stereo unspecified)	29.8 µM	5.45 µM	5.4	10.5 µM	6.51	3.57 µM	8.15 µM	2.16 µM	7.91 µM	24.6 µM										
NNc1ncnc2cccc(Cl)c12	> 100 µM	> 100 µM	> 100	> 100 µM	> 100	> 100 µM	> 100 µM	> 100 µM	> 100 µM	> 100 µM										
COC1/C=C/OC2(C)Oc3c(C)c(O)c4c(O)c(c(C=NOC(c5ccccc5)c5ccccc5)c(O)c4c3C2=O)NC(=O)/C(C)=C/C=C/C(C)C(O)C(C)C(O)C(C)C(OC(C)=O)C1C (stereo unspecified)	4.6 µM	2.73 µM	50	3.38 µM	8.03	3.97 µM	6.01 µM	1.74 µM	1.95 µM	2.08 µM	1.18	1.17	2.17	1.19	1.8	1.18	1.63	0.943	0.979	0.959
Clc1ccc(Nc2ncnc3c2sc2ncccc23)c(Cl)c1	> 22.1 µM	3.95 µM	> 100	> 100 µM	> 100	> 100 µM	> 100 µM	> 100 µM	7.37 µM	> 100 µM	0.0317	< 0.01	0.27	6.67	0.0382	< 0.0122	> 100	0.0492	0.0225	6.39
C/C(CC(=O)Nc1cccc(C)c1C)=N\NC(N)=S	> 100 µM	> 100 µM	> 100	> 100 µM	> 100	> 100 µM	> 100 µM	> 100 µM	> 100 µM	> 100 µM										
COc1cc(-c2ccc(=O)oc2C#Cc2ccccc2)cc(OC)c1OC	70.6 µM	90.2 µM	> 100	> 100 µM	> 100	> 100 µM	> 100 µM	19.9 µM	> 100 µM	> 100 µM	30.4	14.8	86.1	> 100	13.2	44.5	> 100	0.945	12.7	26.7
COc1cc(=O)oc(/C=C/CO)c1C	> 100 µM	> 100 µM	> 100	> 100 µM	> 100	> 100 µM	> 100 µM	> 100 µM	> 100 µM	> 100 µM										
C=C(C)C1CCC2(C(=O)O)CCC3(C)C(CCC4C5(C)CCC(O)C(C)(C)C5CCC43C)C12 (stereo unspecified)	20.7 µM	21.1 µM	27.3	27.9 µM	26.5	18.2 µM	14.7 µM	5.99 µM	16.7 µM	41.8 µM										
O=C(Nc1ccc(Cl)cc1)c1cc2ccccc2cc1OP(=O)(O)O	19.4 µM	49.3 µM	> 100	7.3 µM	> 100	38.1 µM	> 100 µM	71.1 µM	19.2 µM	55.3 µM	2.79	3.04	53.8	1.91	24.8	3.29	4.88	6.64	4.4	4.88
O=C(Nc1nc(-c2ccccc2Cl)cs1)c1cc(-c2ccc(Cl)cc2)nc2ccc(Cl)cc12	> 100 µM	78.2 µM	> 100	47.7 µM	> 100	42.6 µM	> 100 µM	> 100 µM	8.31 µM	> 100 µM	27.4	3.84	3.66	4.77	3.42	3.48	9.92	10.3	2.12	5.61
